In brackets after ≈: the same amount, converted by molar mass.
Columns and labels:
[1] = system: Hep3B human hepatocellular carcinoma cells; experiment: MTS tetrazolium cell proliferation assay, 72-h exposure; assay type: cell-based; details: normoxic (21% O2), read-out: IC50 Normoxic (N)
From the text: Anti-proliferative assay. The human hepatocellular carcinoma cell line Hep3B was purchased from American Type culture Collection (ATCC, Manassas, Va.). Dulbecco's Modified Eagle Medium (DMEM) and penicillin/streptomycin (P/S) were obtained from GIBCO Invitrogen. Fetal Bovine serum (FBS) was obtained from Thermo Scientific Hyclone. Dimethyl sulfoxide (DMSO-Hybri-Max) was purchased from Sigma-Aldrich Co. and the CellTiter 96 AQueous One Solution Cell Proliferation Assay (MTS) was acquired from Promega Corp. Hep3B cells were maintained in DMEM supplemented with 10% FBS and 1× P/S solution. Cultures were incubated at 37° C. in a 5% CO2 atmosphere with 99% humidity. Stock solutions of test compounds were prepared in DMSO for use in the cell culture viability assays.
MTS tetrazolium cell proliferation assay. The viability of Hep3B cells exposed to the synthesized compounds was determined by the MTS assay. Briefly, Hep3B cells were plated in 96-well plates at a density of 3.0×10^3 cells/well and incubated for 24-h before treatment. At the initiation of treatment, the growth media was replaced with 200 μL of media containing increasing concentrations of the test compounds in triplicate wells. The final DMSO concentration in the media was 1.0% including the media added to the control wells minus the test compound. After a 72-hour incubation, 40 μL of MTS solution was added to each well and the plates were incubated for an additional 3.0 hours. The plates were then read at 490 nm on a Biotek Instruments PowerWave 200 microplate reader. For each experiment the percent growth inhibition relative to the control (no drug addition) was calculated and a dose inhibition curve was generated. The concentration of drug required to inhibit cell growth by 50% (IC50) compared to the control cells was then determined by non-linear regression using PSI-Plot software (Poly Software International).
Antiproliferative activity. The anti-cancer activities of the parent compounds 3 and 8 and the conjugated compounds 7a-d and 10a-d were tested against Hep3B human hepatocellular carcinoma cells in culture.

[2] = Determination of water solubility by UV absorbance of a saturated solution; assay type: physicochemical; details: for Increment (solubility): PEG tether compound in comparison with the —CH2CH2— tether compound of the same pair (7c/7a, 7d/7b, 10c/10a, 10d/10b); for solubility at 1 h: thermodynamic from solid, water, saturated solution, sonicated at 25° C., stirred at room temperature 1.0 h, filtered
Protocol: The aqueous solubility of all eight compounds was assessed by using a technique involving measurement of their UV absorbance^29.
Determination of Water Solubility of Compounds 7a-d and 10a-d. A saturated solution was prepared by addition of a test compound (7a-d and 10a-d; ca. 1.00 mg) to water (1.00 mL), which was sonicated at 25° C. for 5.0 min and stirring at room temperature for an additional 1.0 h. After filtration with Millipore filters (0.45-μm-pore-size polyvinylidene fluoride), the supernatant was analyzed by UV spectroscopy with concentration determined from absorbance, standardized against calibration data. Standard curves for each compound were obtained by plotting absorbance against concentration. The concentration range of the standard solutions was 1.0-10 μg/mL. For all standards, their curves were linear with γ>0.996.

[3] = system: Hep3B human hepatocellular carcinoma cells; experiment: Hypoxia targeting assay, 5-h exposure then 5 days growth, MTS; assay type: cell-based; details: for Ratio IC50 (N)/IC50 (H): normoxic versus hypoxic
Protocol: Hypoxia targeting assay. Hep3B cells, plated in 96-well plates at a density of 3.0×10^3 cells/well, were incubated overnight and then treated with the test compounds for 5.0 hours at under hypoxic (1% O2) or normoxic (21% O2) conditions. Exposure of cells to hypoxia was carried out in a PROOX C-Chamber with O2 and CO2 levels modulated by a PROOX Model C21 Controller (BioSpherix). At the end of the treatment period, the wells were washed with phosphate buffered saline (PBS) and fresh compound-free media was added. The cells were cultured for an additional 5 days under normoxic conditions and then assayed for cell proliferation using the MTS assay.
Hypoxia targeting. Nitroimidazoles are converted to reactive compounds in hypoxic cells. Therefore it is of importance to compare the antiproliferative activities of the nitroimidazole conjugated compounds against Hep3B cells under normoxic and hypoxic conditions. In these experiments, Hep3B cells in culture were treated with each of the conjugated compounds 7c-d, 10c-d, or the parent compounds 3 or 8 for a 5.0-hour period under normoxic (21% O2) or hypoxic (1.0% O2) conditions. After treatment, the cells were returned to normal conditions and assayed for proliferation after 5 days of additional growth. […] The ratio between the IC50 values for each drug under normoxic versus hypoxic culture conditions was computed and used as a measure of the relative increase in potency.

[4] = system: subcutaneous LNCaP prostate cancer cell explants; experiment: Immunofluorescence analysis of 2-nitroimidazole induced protein adducts in mouse tumor explants; assay type: in vivo, nude mice; details: daily intravenous tail vein injection for three weeks
Protocol: Immunofluorescence analysis of 2-nitroimidazole induced protein adducts in mouse tumor explants. Nude mice with subcutaneous LNCaP prostate cancer cell explants were administered Hydroxyprobe-1, M3N or M3N-PEG-2NI for three weeks by daily intravenous tail vein injection with an additional injection 3 hours prior to euthanization. Tumors were removed from the euthanized mice by dissection and incubated in 30% sucrose/PBS overnight at 4° C. Excess sucrose was removed and the tissue was incubated in 30% sucrose/PBS:OCT (1:1) for 1 hour at room temperature. Afterward the tissue was frozen in 100% OCT. Frozen sections of […] were prepared and fixed in 4% PFA/PBS for 1 hour at room temperature. The sections were blocked overnight at 4° C. with 5% goat serum/PBS or at room temperature for 1 hour and then incubated with Hydroxyprobe-1 rabbit antiserum (1:200) overnight at 4° C. After three washes with PBS, the secondary antibody, mouse anti rabbit-FITC (1:1000) was added for 1 hour at room temperature. The sections were mounted using Vectashield and fluorescently imaged.

[5] = system: LNCaP human prostate cancer cells; experiment: Western blot analysis of 2-nitroimidazole induced protein adducts in cell culture; assay type: cell-based; details: 80 μM, 6 hours normoxic then 6 hours hypoxic or normoxic
Protocol: Western blot analysis of 2-nitroimidazole induced protein adducts in LNCaP cell cultures. Exponentially growing LNCaP human prostate cancer cells were treated with DMSO, 80 μM M3N-PEG-2NI or Hypoxyprobe-1 in standard media for 6 hours under normoxic conditions and then under hypoxic or normoxic conditions for additional 6 hours. Afterward the media was aspirated, the cells washed and ice cold RIPA lysis buffer was added and the cells lysed on ice for 15 minutes. The samples were centrifuged and the lysate collected. Cellular proteins in the extracts were analyzed for the presence of protein adducts using standard western blotting technique. The primary antibody was PAb2627 polyclonal antibody (1:200) directed against Hydroxyprobe-1 protein adducts. The secondary antibody was Anti-Rabbit HRP conjugate (1:2000). Detection was by chemiluminescence

[6] = system: 786-0 human renal adenocarcinoma cells; experiment: MTT cell viability assay, 3 days; assay type: cell-based; details: normoxic conditions, 1% DMSO
Protocol: (§1) Additional cell culture, drug treatment and cell viability assays. HT29 human colorectal carcinoma cells, 786-0 human renal adenocarcinoma cells and Hep3B human hepatocellular carcinoma cells were obtained from ATCC and maintained in culture according to their recommendations. […] After the treatment period viability of the cells was determined with the MTT cell viability assay and dose response curves were generated using the calculated values of the percentage viable cells relative to the vehicle control.

[7] = system: HT29 human colorectal carcinoma cells; experiment: MTT cell viability assay, 3 days; assay type: cell-based; details: normoxic conditions, 1% DMSO
Protocol: as §1

[8] = system: Hep3B human hepatocellular carcinoma cells; experiment: MTT cell viability assay, 3 days; assay type: cell-based; details: normoxic conditions, 1% DMSO
Protocol: as §1

[9] = system: HT29 human colorectal carcinoma cells; experiment: Cell viability by plating efficiency (colony formation after replating); assay type: cell-based; details: 40 μM, 48 h, diluted 10,000 fold and replated, colonies stained eight days later
Protocol: FIG. 6 depicts the plating efficiency of HT29 human colorectal carcinoma cells after treatment with DMSO, 40μ M3n and 40μ M3N-PEG-2NI. HT29 cells were treated for 48 h with 40 μM M3N, 40 μM M3N-PEG-2NI or the DMSO vehicle. At the end of the treatment period, the cells were diluted 10,000 fold and replated. Eight days later colonies were stained with methylene blue.
For the further assessment of cell viability by plating efficiency, cells (2×10^6 cells/100 mm dish) from the human colorectal carcinoma cell line HT29 were treated for 48 hours with 40 μM M3N, 40 μM M3N-PEG-2NI or the DMSO vehicle. At the end of the treatment period, the cells from each dish were released by trypsinization, diluted 10,000 fold and replated into new 100 mm dishes. Eight days later colonies were stained with 0.25% methylene blue in 50% ethanol

[10] = Homo sapiens, hypoxic (1.0% O2), then 5 days normoxic growth, read-out: IC50 Hypoxic (H)
[11] = Homo sapiens, normoxic (21% O2), then 5 days growth, read-out: IC50 Normoxic (N)
[12] = hypoxic (1.0% O2), then 5 days normoxic growth, read-out: IC50 Hypoxic (H)

Compound	IC50 [1] [µM]	Increment (solubility) [2] [fold]	solubility at 1 h [2] [µg/mL]	Ratio IC50 (N)/IC50 (H) [3]	further results
COc1ccc(C[C@H](C)[C@H](C)Cc2ccc(OC)c(OCCn3cnc([N+](=O)[O-])c3)c2)cc1OC (racemic) [Compound 7a, (±)-(2R,3S)-4-(3,4-Dimethoxyphenyl)-1-[4-methoxy-3-[2-(4-nitro-1H-imidazol-1-yl)ethoxy]phenyl]-2,3-dimethylbutane]	15.8 ± 1.6	10.5	1.76 (≈ 3.64 µM)		
COc1ccc(C[C@H](C)[C@H](C)Cc2ccc(OC)c(OCCn3ccnc3[N+](=O)[O-])c2)cc1OC (racemic) [Compound 7b, (±)-(2R,3S)-4-(3,4-Dimethoxyphenyl)-1-[4-methoxy-3-[2-(2-nitro-1H-imidazol-1-yl)ethoxy]phenyl]-2,3-dimethylbutane]	21.8 ± 4.5	8.1	1.64 (≈ 3.39 µM)		
COc1ccc(C[C@H](C)[C@H](C)Cc2ccc(OC)c(OCCOCCOCCOCCn3cnc([N+](=O)[O-])c3)c2)cc1OC (racemic) [Compound 7c, (±)-(2R,3S)-4-(3,4-Dimethoxyphenyl)-1-[4-methoxy-3-[12-(4-nitro-1H-imidazol-1-yl)-1,4,7,10-tetraoxadodecanyl]phenyl]-2,3-dimethylbutane]	13 ± 5.1		18.5 (≈ 30.1 µM)	1.62	IC50 [3, 10]: 64.3 ± 15.1 µM; IC50 [3, 11]: 104 ± 17.6 µM
COc1ccc(C[C@H](C)[C@H](C)Cc2ccc(OCCn3cnc([N+](=O)[O-])c3)c(OC)c2)cc1OC (racemic) [Compound 10a, (±)-(2R,3S)-4-(3,4-Dimethoxyphenyl)-1-[3-methoxy-4-[2-(4-nitro-1H-imidazol-1-yl)ethoxy]phenyl]-2,3-dimethylbutane]	18.7 ± 4.1	6.5	1.63 (≈ 3.37 µM)		
COc1ccc(C[C@H](C)[C@H](C)Cc2ccc(OCCn3ccnc3[N+](=O)[O-])c(OC)c2)cc1OC (racemic) [Compound 10b, (±)-(2R,3S)-4-(3,4-Dimethoxyphenyl)-1-[3-methoxy-4-[2-(2-nitro-1H-imidazol-1-yl)ethoxy]phenyl]-2,3-dimethylbutane]	24.8 ± 8.7	11.2	1.7 (≈ 3.52 µM)		
COc1ccc(C[C@H](C)[C@H](C)Cc2ccc(OCCOCCOCCOCCn3cnc([N+](=O)[O-])c3)c(OC)c2)cc1OC (racemic) [Compound 10c, (±)-(2R,3S)-4-(3,4-Dimethoxyphenyl)-1-[3-methoxy-4-[12-(4-nitro-1H-imidazol-1-yl)-1,4,7,10-tetraoxadodecanyl]phenyl]-2,3-dimethylbutane]	12.5 ± 4.1		10.5 (≈ 17.1 µM)	2.69	IC50 [3, 10]: 52.1 ± 3.8 µM; IC50 [3, 11]: 140 ± 33.5 µM
COc1ccc(C[C@H](C)[C@H](C)Cc2ccc(OCCOCCOCCOCCn3ccnc3[N+](=O)[O-])c(OC)c2)cc1OC (racemic) [Compound 10d, (±)-(2R,3S)-4-(3,4-Dimethoxyphenyl)-1-[3-methoxy-4-[12-(2-nitro-1H-imidazol-1-yl)-1,4,7,10-tetraoxadodecanyl]phenyl]-2,3-dimethylbutane]	13.4 ± 3.4		19.1 (≈ 31.1 µM)	2.42	IC50 [3, 10]: 49.1 ± 4.9 µM; IC50 [3, 11]: 119 ± 42.8 µM
COc1ccc(CC(C)C(C)Cc2ccc(OC)c(OC)c2)cc1O (stereo not drawn) [Compound 3, trimethyl NDGA, reference compound]				1.58	IC50 [3, 12]: 99 ± 0.6 µM
COc1ccc(CC(C)C(C)Cc2ccc(OC)c(OC)c2)cc1O (stereo not drawn) [Compound 8, trimethyl NDGA, reference compound]				1.28	IC50 [3, 12]: 87.6 ± 8.7 µM
Cl.O=[N+]([O-])c1nccn1CC(O)CN1CCCCC1 (stereo not drawn) [Hydroxyprobe-1]					Protein adducts in tumor sections by immunofluorescence [4]: Protein-adducts were also found; Protein adducts by western blot (PAb2627 antibody) [5]: showed evidence of protein adducts
tri-O-methyl NDGA [Compound M3N, reference compound]					IC50 [6]: 36 to 64 µM; IC50 [7]: > 80 µM; IC50 [8]: 15 to 30 µM; Protein adducts in tumor sections by immunofluorescence [4]: little evidence of adduct formation; Protein adducts by western blot (PAb2627 antibody) [5]: No protein adducts were detected; Ability of HT29 cells to replicate after treatment (plating efficiency) [9]: able to replicate after treatment

Source: patent US9084779B2, “Conjugates of nitroimidazoles and their use as chemotherapeutic agents” (The Johns Hopkins University, priority 2011, dated 2015)
